Assay results published in ChEMBL document CHEMBL1201862, “PubChem BioAssay data set” (2004).
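Tested at 5 concentrations; 48 h exposure; 96-well plates; endpoints linearly interpolated, else capped at highest concentration. Here, GI50 denotes the concentration required for 50% inhibition of growth.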 Active and inactive are the calls of the source. Rule as the data show it: active = GI50 up to about 1.1 µM and inactive = higher.

How the values were obtained:
Assay in all cases: inhibition of tumour cell growth, NCI panel, 48 h
U-251 = test system: U-251
DU-145 = test system: DU-145
HCT-116 = test system: HCT-116
KM12 = test system: KM12
Hs-578T = test system: Hs-578T
COLO 205 = test system: COLO 205
M14 = test system: M14
NCI-H23 = test system: NCI-H23
A498 = test system: A498
ACHN = test system: ACHN
MDA-N = test system: MDA-N
SK-MEL-2 = test system: SK-MEL-2
SK-MEL-5 = test system: SK-MEL-5
T47D = test system: T47D
OVCAR-3 = test system: OVCAR-3
MOLT-4 = test system: MOLT-4
SK-MEL-28 = test system: SK-MEL-28
BT-549 = test system: BT-549
NCI/ADR-RES = test system: NCI/ADR-RES
MDA-MB-435 = test system: MDA-MB-435
OVCAR-5 = test system: OVCAR-5
OVCAR-8 = test system: OVCAR-8
UACC-257 = test system: UACC-257
HT-29 = test system: HT-29
NCI-H522 = test system: NCI-H522
CAKI-1 = test system: CAKI-1
A549 = test system: A549
MDA-MB-231 = test system: MDA-MB-231
HL-60 = test system: HL-60
PC-3 = test system: PC-3
HCT-15 = test system: HCT-15
SN12C = test system: SN12C
HOP-62 = test system: HOP-62
MCF7 = test system: MCF7
CCRF-CEM = test system: CCRF-CEM
786-0 = test system: 786-0
UO-31 = test system: UO-31
SF-295 = test system: SF-295
HCC 2998 = test system: HCC 2998
SR = test system: SR
K562 = test system: K562
TK-10 = test system: TK-10
Malme-3M = test system: Malme-3M
SF-539 = test system: SF-539
IGROV-1 = test system: IGROV-1
SF-268 = test system: SF-268
SW-620 = test system: SW-620
UACC-62 = test system: UACC-62
SNB-19 = test system: SNB-19
NCI-H226 = test system: NCI-H226
SNB-75 = test system: SNB-75
SK-OV-3 = test system: SK-OV-3
NCI-H460 = test system: NCI-H460
RXF 393 = test system: RXF 393
EKVX = test system: EKVX
RPMI-8226 = test system: RPMI-8226
OVCAR-4 = test system: OVCAR-4
LOX IMVI = test system: LOX IMVI
HOP-92 = test system: HOP-92

## CN(C)CCOc1ccc([N+](=O)[O-])c2cccnc12
U-251
  GI50: > 100 µM (inactive)
DU-145
  GI50: > 100 µM (inactive)
HCT-116
  GI50: 35.6 µM (inactive)
KM12
  GI50: > 100 µM (inactive)
Hs-578T
  GI50: > 100 µM (inactive)
COLO 205
  GI50: 43 µM (inactive)
M14
  GI50: > 100 µM (inactive)
NCI-H23
  GI50: > 100 µM (inactive)
A498
  GI50: > 100 µM (inactive)
ACHN
  GI50: > 100 µM (inactive)
MDA-N
  GI50: 79.1 µM (inactive)
SK-MEL-2
  GI50: > 100 µM (inactive)
SK-MEL-5
  GI50: > 100 µM (inactive)
T47D
  GI50: > 100 µM (inactive)
OVCAR-3
  GI50: > 100 µM (inactive)
MOLT-4
  GI50: 60.8 µM (inactive)
SK-MEL-28
  GI50: > 100 µM (inactive)
BT-549
  GI50: > 100 µM (inactive)
NCI/ADR-RES
  GI50: > 100 µM (inactive)
MDA-MB-435
  GI50: > 100 µM (inactive)
OVCAR-5
  GI50: > 100 µM (inactive)
OVCAR-8
  GI50: > 100 µM (inactive)
UACC-257
  GI50: 86.9 µM (inactive)
HT-29
  GI50: 39.4 µM (inactive)
NCI-H522
  GI50: 61.9 µM (inactive)
CAKI-1
  GI50: > 100 µM (inactive)
A549
  GI50: > 100 µM (inactive)
MDA-MB-231
  GI50: 30.2 µM (inactive)
HL-60
  GI50: > 100 µM (inactive)
PC-3
  GI50: > 100 µM (inactive)
HCT-15
  GI50: > 100 µM
SN12C
  GI50: 60.4 µM (inactive)
HOP-62
  GI50: > 100 µM (inactive)
MCF7
  GI50: > 100 µM (inactive)
CCRF-CEM
  GI50: > 100 µM (inactive)
786-0
  GI50: > 100 µM (inactive)
UO-31
  GI50: > 100 µM (inactive)
SF-295
  GI50: > 100 µM (inactive)
HCC 2998
  GI50: > 100 µM (inactive)
SR
  GI50: > 100 µM (inactive)
K562
  GI50: 97.3 µM (inactive)
TK-10
  GI50: > 100 µM (inactive)
Malme-3M
  GI50: > 100 µM (inactive)
SF-539
  GI50: > 100 µM (inactive)
IGROV-1
  GI50: > 100 µM (inactive)
SF-268
  GI50: > 100 µM (inactive)
SW-620
  GI50: 78.7 µM (inactive)
UACC-62
  GI50: > 100 µM (inactive)
SNB-19
  GI50: > 100 µM (inactive)
NCI-H226
  GI50: > 100 µM (inactive)
SNB-75
  GI50: 40.8 µM (inactive)
SK-OV-3
  GI50: > 100 µM (inactive)
NCI-H460
  GI50: > 100 µM (inactive)

## c1ccc2c(c1)cc1n2CCc2c-1[nH]c1ccccc21
U-251
  GI50: > 10 µM (inactive)
DU-145
  GI50: > 10 µM (inactive)
HCT-116
  GI50: > 10 µM (inactive)
KM12
  GI50: > 10 µM (inactive)
Hs-578T
  GI50: > 10 µM (inactive)
COLO 205
  GI50: > 10 µM (inactive)
M14
  GI50: > 10 µM (inactive)
NCI-H23
  GI50: > 10 µM (inactive)
ACHN
  GI50: > 10 µM (inactive)
MDA-N
  GI50: > 10 µM (inactive)
SK-MEL-2
  GI50: > 10 µM (inactive)
SK-MEL-5
  GI50: > 10 µM (inactive)
T47D
  GI50: 3.01 µM (inactive)
OVCAR-3
  GI50: > 10 µM (inactive)
MOLT-4
  GI50: > 10 µM (inactive)
RXF 393
  GI50: > 10 µM (inactive)
SK-MEL-28
  GI50: > 10 µM (inactive)
BT-549
  GI50: > 10 µM (inactive)
NCI/ADR-RES
  GI50: > 10 µM (inactive)
MDA-MB-435
  GI50: > 10 µM (inactive)
OVCAR-5
  GI50: > 10 µM (inactive)
OVCAR-8
  GI50: > 10 µM (inactive)
UACC-257
  GI50: > 10 µM (inactive)
HT-29
  GI50: > 10 µM (inactive)
NCI-H522
  GI50: > 10 µM (inactive)
CAKI-1
  GI50: > 10 µM (inactive)
A549
  GI50: > 10 µM (inactive)
MDA-MB-231
  GI50: > 10 µM (inactive)
HL-60
  GI50: > 10 µM (inactive)
PC-3
  GI50: > 10 µM (inactive)
HCT-15
  GI50: 5.12 µM
SN12C
  GI50: > 10 µM (inactive)
HOP-62
  GI50: > 10 µM (inactive)
MCF7
  GI50: > 10 µM (inactive)
CCRF-CEM
  GI50: > 10 µM (inactive)
786-0
  GI50: > 10 µM (inactive)
UO-31
  GI50: > 10 µM (inactive)
SF-295
  GI50: > 10 µM (inactive)
HCC 2998
  GI50: > 10 µM (inactive)
EKVX
  GI50: > 10 µM (inactive)
RPMI-8226
  GI50: > 10 µM (inactive)
SR
  GI50: > 10 µM (inactive)
K562
  GI50: > 10 µM (inactive)
TK-10
  GI50: > 10 µM (inactive)
Malme-3M
  GI50: > 10 µM (inactive)
SF-539
  GI50: > 10 µM (inactive)
OVCAR-4
  GI50: > 10 µM (inactive)
IGROV-1
  GI50: > 10 µM (inactive)
LOX IMVI
  GI50: > 10 µM (inactive)
SF-268
  GI50: > 10 µM (inactive)
HOP-92
  GI50: > 10 µM (inactive)
SW-620
  GI50: > 10 µM (inactive)
UACC-62
  GI50: > 10 µM (inactive)
SNB-19
  GI50: > 10 µM (inactive)
NCI-H226
  GI50: > 10 µM (inactive)
SNB-75
  GI50: > 10 µM (inactive)
SK-OV-3
  GI50: > 10 µM (inactive)
NCI-H460
  GI50: > 10 µM (inactive)
